How the values were obtained:
common bacteria = details: typical value for common bacteria; cited from earlier work
[1] = Stability of antibiotic drug activity in 0.5% (agarose) hydrogel over time; type: physicochemical; details: antibiotic in 0.5% (agarose) hydrogel, compare with original concentration
Text: According to Table 1, gel-therapeutic agent preparations comprising an antibiotic and a 0.5% (agarose) hydrogel may be stable for up to one week. Drugs dissolve passively into the gel and stay stable over time. In some embodiments, the gel-therapeutic agent preparation may further comprise saline. The gel may be biocompatible, meaning that it is structurally similar to the extracellular matrix in tissues. The gel may be flowable, allowing either for, for example, casting into a mold or injection via needle through a port. The loading of the […] agent preparation in the device may allow consistent and uniform contact with the skin even with patient movement, maintaining continuous delivery of the therapeutic agent to the underlying tissue. The gel-therapeutic agent preparation may prevent loss of the therapeutic agent in the event of a minor leak in the adhesive of the device.

Row | Compound | MIC (common bacteria) | Drug activity, 3 days ([1]; 3 days) | Drug activity, 7 days ([1]; 7 days)
1 | CN[C@H](CC(C)C)C(=O)N[C@H]1C(=O)N[C@@H](CC(N)=O)C(=O)N[C@H]2C(=O)N[C@H]3C(=O)N[C@H](C(=O)N[C@H](C(=O)O)c4cc(O)cc(O)c4-c4cc3ccc4O)[C@H](O)c3ccc(c(Cl)c3)Oc3cc2cc(c3O[C@@H]2O[C@H](CO)[C@@H](O)[C@H](O)[C@H]2O[C@H]2C[C@](C)(N)[C@H](O)[C@H](C)O2)Oc2ccc(cc2Cl)[C@H]1O [Vancomicin] | around 2 micrograms per ml | – | –
2 | Gentamicin | around 2 micrograms per ml | 2.41 µg/mL | 2.04 µg/mL

Reference: patent publication US20250387270A1, “DEVICES AND METHODS FOR WOUND TREATMENT” (APPLIED TISSUE TECHNOLOGIES LLC, priority 2016, published 2025)
